Measured values reported in PMC8521653 (ACS Medicinal Chemistry Letters, 2021).
Marks after values point to notes of the source that are not given here. Peptide text beside a SMILES is read from it. * marks the point of attachment. Cbz = O=C(OCc1ccccc1)*

Columns and labels:
[1] = test system: GFP-LC3B-RFP expressing HEK-293 cells; assay: Autophagic flux, GFP signal in GFP-LC3B-RFP expressing HEK-293 cells; type: cell-based; conditions: for effect on autophagy (in words) / activity at 10 µM: 10 μM; for activity at 10 µM: Homo sapiens, HEK293, 24 h, GFP signal percentage of DMSO control with SEM, HEK-293 cells, read-out: autophagy at 10 μM (%)
[2] = test system: PREP-catalyzed α-synuclein dimerization in N2A cells; conditions: luminescence signal percentage of DMSO control with SEM, ref Kilpeläinen et al.[16]; cited from earlier work
[3] = target: T1, purified recombinant porcine PREP (Sus scrofa, UniProt P23687); assay: Inhibition of the proteolytic activity of PREP, microplate assay with Suc-Gly-Pro-AMC substrate; type: biochemical; conditions: for PREP activity at 1 nM inhibitor concentration compared to control: remaining activity; for IC50: Suc-Gly-Pro-AMC, 30 °C, pH 7.0, 95% CI in brackets
T1 construct: made in house; host or cells: E. coli
T1 sequence (P23687 whole entry): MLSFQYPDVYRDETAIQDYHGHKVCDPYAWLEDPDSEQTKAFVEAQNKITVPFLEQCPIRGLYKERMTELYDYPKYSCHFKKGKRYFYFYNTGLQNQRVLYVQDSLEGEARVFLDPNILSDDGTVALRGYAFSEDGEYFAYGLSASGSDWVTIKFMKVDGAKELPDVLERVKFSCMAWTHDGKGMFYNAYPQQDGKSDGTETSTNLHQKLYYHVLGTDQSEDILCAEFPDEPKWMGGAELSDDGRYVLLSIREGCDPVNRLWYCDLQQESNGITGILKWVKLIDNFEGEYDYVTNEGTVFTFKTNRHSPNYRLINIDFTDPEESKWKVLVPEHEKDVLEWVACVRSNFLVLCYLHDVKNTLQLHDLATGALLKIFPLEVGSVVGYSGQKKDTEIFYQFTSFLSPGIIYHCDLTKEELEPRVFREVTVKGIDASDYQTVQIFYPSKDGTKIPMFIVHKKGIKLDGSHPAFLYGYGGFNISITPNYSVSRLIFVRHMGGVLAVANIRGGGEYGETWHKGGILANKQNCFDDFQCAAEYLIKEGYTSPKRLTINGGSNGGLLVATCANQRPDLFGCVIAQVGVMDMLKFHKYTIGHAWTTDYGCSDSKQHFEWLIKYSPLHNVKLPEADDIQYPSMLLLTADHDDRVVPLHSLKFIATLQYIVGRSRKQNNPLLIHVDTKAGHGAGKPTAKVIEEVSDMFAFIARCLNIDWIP
Procedure: Inhibition of the proteolytic activity (IC50) of PREP was determined using purified recombinant porcine PREP[25] as previously described.[16]
Measuring biological activity
Inhibitory Activity. The IC 50 values for compounds were determined in the microplate assay procedure described in Kilpeläinen et al.1 Porcine PREP cDNA was expressed in E.coli cells and purified as described in Venäläinen et al.3 The enzyme dilution was preincubated with 0.1 M sodium–potassium phosphate buffer (75 µL, pH 7.0) containing the compounds at desired concentrations in 30 °C for 30 min. The final concentration of the compounds in the assay mixture varied from 1 mM-1 nM and the final concentration of the enzyme was approximately 0.1 nM as measured by Bradford´s method. The enzyme reaction was carried out by adding 25 µL of 4 mM Suc-Gly-Pro-AMC substrate dissolved in 0.1 M sodium–potassium phosphate buffer (pH 7.0) into the assay mixture and incubating at 30° C for 60 min. The reaction was terminated by adding […] of 1 M sodium acetate buffer (pH 4.2). Formation of AMC was measured with Victor2 multilabel counter (PerkinElmer; excitation/emission 360 nm/ 460 nm), with a standard curve of 0.1-5 nM AMC in 0.1 M sodium–potassium phosphate buffer present. All activity measurements were made at least in triplicate. The inhibitory activities (percent of control) were plotted against the log concentration of the compound, and the IC50-value was determined by non-linear regression utilizing GraphPad Prism 7.0 software. […]

[4] = test system: PREP-catalyzed α-synuclein dimerization in N2A cells; assay: αSyn dimerization, protein fragment complementation assay (PCA) in N2A cells; type: cell-based; conditions: for activity at 10 µM: Mus musculus, luminescence signal percentage of DMSO control with SEM, N2A cells; for increase of aSyn dimerization compared to DMSO control: 10 µM proteasome inhibitor, positive control, % increase
Procedure: The effect of the compounds on autophagy was determined by using GFP-LC3B-RFP expressing HEK-293 cells.[15],[34] The effect on αSyn dimerization was evaluated with a protein fragment complementation assay (PCA) by using N2A cells.[10],[15],[16] The increase in autophagic flux was measured as a decrease in GFP signal due to increased degradation of GFP-LC3B, and the decrease in αSyn dimerization was measured as a decrease in luminescence, both compared with DMSO (Table 1). […] Rapamycin and starvation are known to induce autophagy, lowering the fluorescence to 65–70% in our assays, and were therefore used as reference compounds for this. Test compounds were assayed at 10 μM concentration with 0.1% DMSO. A graphical representation of the mean values (± SEM) can be seen in the Supporting Information (Figure S1).
Measuring biological activity […]
α-Synuclein Dimerization. αSyn dimerization was assessed by using PCA, which was carried out as described previously in Kilpeläinen et al.1 In short, N2A cells were seeded on poly-L-lysine-coated 96-well plates (Isoplate™ white wall, PerkinElmer Life Sciences) at the density of 13 000 cells/well. 24 h post-plating, reporter plasmids were transfected with 100 ng of total plasmid DNA per well. N2A cells were transfected with 25 ng of both αSyn-Gluc1 and αSyn-Gluc2 and 50 ng mock-plasmid or non-tagged human PREP expression plasmid 50 ng/well. Lipofectamine 3000 (Thermo Fischer Scientific) was used as the transfection reagent. 100 µL normal growth medium was added to all wells at 24 h post-transfection. 48 hours post-transfection medium was changed to phenol red free DMEM without serum containing the tested compounds at 10 µM concentration, with 0,1% DMSO as vehicle control. Proteasome inhibitors lactacystin (AG Scientific) at 10 µM and MG-132 (Enzo Life Sciences) at 10 µM served as a positive control. The PCA signal was assessed by injecting 25 µL of native coelenterazine (Nanolight Technology) in phenol red free DMEM per well (final concentration 6 µM). The emitted luminescence was read using Varioskan LUX multimode microplate reader (Thermo Scientific). For each experimental condition, 4 replicate wells were used in each experiment, and at least 3 separate experiments for each treatment except for 15c which had 2 separate experiments. […]

Row | SMILES | effect on autophagy (in words) [1] | activity at 10 µM [1] [%] | IC50 ([3]; recombinant porcine PREP) [nM] | effect on αSyn dimerization (in words) ([4]; 10 μM) | activity at 10 µM ([4]; 10 μM) [%] | also measured
1 | CN(CC(=O)N1CCC[C@H]1c1nnn[nH]1)C(=O)CCCc1ccccc1 [Compound 1c] | some effect | 84 | – | – | – | α-synuclein dimerization at 10 μM (%) [2]: 75 ^e (7.7) %
2 | C[C@@H](C(=O)N1CCC[C@H]1c1nnn[nH]1)N(C)C(=O)CCCc1ccccc1 [Compound 1d] | no significant activity | 93 | – | – | – | α-synuclein dimerization at 10 μM (%) [2]: 75 ^e (7.3) %
3 | O=C(c1ncc[nH]1)[C@@H]1CCCN1C(=O)[C@@H]1CCCN1C(=O)CCCc1ccccc1 [Compound 2a, reference compound] | lack of activity | 95 | < 1 | lack of activity | 99 | PREP activity at 1 nM inhibitor concentration compared to control [3]: 43%
4 | O=C(CCc1ccccc1)N1CCC[C@H]1C(=O)N1CCC[C@H]1c1nnn[nH]1 [Compound 15a] | – | 96 | 1000 | – | 116 | –
5 | C[C@H](NC(=O)CCc1ccccc1)C(=O)N1CCC[C@H]1c1nnn[nH]1 [Compound 15b] | – | 90 | 3900 | – | 98 | –
6 | CN(CC(=O)N1CCC[C@H]1c1nnn[nH]1)C(=O)CCc1ccccc1 [Compound 15c] | – | 95 | – | – | 95 | –
7 | O=C(CCCCc1ccccc1)N1CCC[C@H]1C(=O)N1CCC[C@H]1c1nnn[nH]1 [Compound 16a] | – | 98 | 770 | – | 102 | –
8 | C[C@H](NC(=O)CCCCc1ccccc1)C(=O)N1CCC[C@H]1c1nnn[nH]1 [Compound 16b] | – | 94 | 5000 | – | 92 | –
9 | O=C(CCCc1cccs1)N1CCC[C@H]1C(=O)N1CCC[C@H]1c1nnn[nH]1 [Compound 17a] | slightly improved the activity in inducing autophagy | 87 | 94 | maintained some activity on αSyn dimerization | 87 | –
10 | C[C@H](NC(=O)CCCc1cccs1)C(=O)N1CCC[C@H]1c1nnn[nH]1 [Compound 17b] | inactive for both functions | 92 | 1100 | inactive for both functions | 93 | –
11 | Cn1nnnc1[C@@H]1CCCN1C(=O)[C@@H]1CCCN1C(=O)CCCc1ccccc1 [Compound 18a] | capable of inducing autophagy | 88 | 520000 | lost the activity on αSyn dimerization | 105 | –
12 | Cn1nnc([C@@H]2CCCN2C(=O)[C@@H]2CCCN2C(=O)CCCc2ccccc2)n1 [Compound 19a] | capable of inducing autophagy | 85 | – | lost the activity on αSyn dimerization | 101 | –
13 | O=C(CCCc1ccccc1)N1CCC[C@H]1C(=O)N1CCC[C@H]1c1nnc[nH]1 [Compound 20a] | some minor activity in modulating autophagy | 87 | – | no activity on αSyn dimerization | 96 | –
14 | C[C@H](NC(=O)CCCc1ccccc1)C(=O)N1CCC[C@H]1c1nnc[nH]1 [Compound 20b] | – | 91 | – | – | 110 | –
15 | O=C(CCCc1ccccc1)N1CCC[C@H]1C(=O)N1CCC[C@H]1c1cnn[nH]1 [Compound 25a] | – | 93 | 1100 | – | 104 | –
16 | O=C(CCc1ccccc1)N1CCC[C@H]1C(=O)N1CCC[C@H]1c1ncc[nH]1 [Compound 26a] | – | 102 | < 1 | still retaining some modulating activity | 89 | PREP activity at 1 nM inhibitor concentration compared to control [3]: 41%
17 | O=C(CCCc1ccccc1)N1CCC[C@H]1C(=O)N1CCC[C@H]1c1ncc[nH]1 [Compound 27a] | no effect on autophagy | 96 | < 1 | – | 72 | PREP activity at 1 nM inhibitor concentration compared to control [3]: 25%; decrease of aSyn dimerization compared to DMSO control ([4]; 10 μM, PCA, Figure S1A, % decrease): 28%
18 | C[C@H](NC(=O)CCCc1ccccc1)C(=O)N1CCC[C@H]1c1ncc[nH]1 [Compound 27b] | did not retain either of the activities | 106 | 2100 | did not retain either of the activities | 110 | –
19 | O=C(CCCCc1ccccc1)N1CCC[C@H]1C(=O)N1CCC[C@H]1c1ncc[nH]1 [Compound 28a] | – | 102 | < 1 | – | 110 | PREP activity at 1 nM inhibitor concentration compared to control [3]: 20%
20 | O=C(CCCc1ccccc1)N1CCC[C@H]1C(=O)N1CCC[C@H]1c1cnc[nH]1 [Compound 29a] | some minor activity in modulating autophagy | 92 | 44 | no activity on αSyn dimerization | 98 | –
21 | O=C(CCCc1ccccc1)N1CCC[C@H]1C(=O)N1CCC[C@H]1c1ccn[nH]1 [Compound 30a] | some minor activity in modulating autophagy | 89 | – | no activity on αSyn dimerization | 99 | IC50 value (in words) ([3]; recombinant porcine PREP): micromolar range
22 | CC(C)C[C@@H](C=O)NC(=O)[C@H](CC(C)C)NC(=O)[C@H](CC(C)C)NC(=O)OCc1ccccc1 [MG-132, reference compound] (Cbz-Leu-Leu-Leu-aldehyde) | – | – | – | – | – | increase of aSyn dimerization compared to DMSO control ([4]; PCA): 29%
23 | CO/C1=C\C(C)=C\[C@@H](C)[C@@H](O)[C@@H](C)C/C(C)=C/C=C/[C@H](OC)[C@@H]([C@@H](C)[C@@H](O)[C@H](C)[C@@]2(O)C[C@@H](O)[C@H](C)[C@@H](C(C)C)O2)OC1=O [bafilomycin A1, reference compound] | – | – | – | – | – | increase in autophagic flux assay GFP signal compared to DMSO control ([1]; 20 nM, autophagy inhibitor control, % increase): 40%
24 | CC(=O)N[C@@H](CSC(=O)[C@]1([C@@H](O)C(C)C)NC(=O)[C@H](C)[C@@H]1O)C(=O)O [lactacystin, reference compound] | – | – | – | – | – | increase of aSyn dimerization compared to DMSO control ([4]; PCA): 32%
25 | CO[C@H]1C[C@@H]2CC[C@@H](C)[C@@](O)(O2)C(=O)C(=O)N2CCCC[C@H]2C(=O)O[C@H]([C@H](C)C[C@@H]2CC[C@@H](O)[C@H](OC)C2)CC(=O)[C@H](C)/C=C(\C)[C@@H](O)[C@@H](OC)C(=O)[C@H](C)C[C@H](C)/C=C/C=C/C=C/1C [rapamycin, reference compound] | – | – | – | – | – | decrease in autophagic flux assay GFP signal compared to DMSO control ([1]; 0.5 µM, positive control, % decrease): 34%; fluorescence (GFP signal) relative to DMSO control ([1]; reference for autophagy induction, in our assays): 65–70%
